Assay in all cases: NCI tumour cell line growth inhibition, 48 h
The test system of test [1] is UO-31 renal.
Test [2] has as its system CCRF-CEM leukemia.
Test [3] relates to KM12 colon.
Test [4] relates to OVCAR-3 ovarian.
Test [5] relates to SK-MEL-5 melanoma.
Test [6] relates to OVCAR-8 ovarian.
Test [7] has as its system U251 CNS.
For test [8], the system named is CAKI-1 renal.
Test [9] has as its system UACC-62 melanoma.
Test [10] has as its system NCI/ADR-RES ovarian.

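Tested at 5 concentrations; 48 h exposure; 96-well plates; endpoints linearly interpolated, else capped at highest concentration. GI50 = concentration required for 50% inhibition of growth. TGI: concentration producing complete growth inhibition.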

Regarding `COc1cc2cc[n+](C)c(Cc3ccc(Oc4cc(Cc5c6cc(OC)c(OC)cc6cc[n+]5C)ccc4OC)cc3)c2cc1OC`, the TGI in test [1], in [2], in test [3], in test [4], in test [5] and in test [6] was > 100 µM in each case. Further, the TGI in test [7], in test [8] and in [9] was > 100 µM in each case.

In the case of `CS(=O)(=O)Nc1ccc(NCc2cnc3ccc4[nH]cccc4c23)cc1`, the TGI in [1] is 78.2 µM; in test [2], 58.5 µM; in test [3], 36.7 µM; in test [4], 92.9 µM; in test [10], > 100 µM; in [5], 28.8 µM. Besides, the TGI in test [6] is > 100 µM; in [7] it was 68.9 µM; in test [8], 65 µM; in test [9], 30.7 µM.

As for `CC12OC(C(=O)C13CCC3)C1C(=O)c3c(O)ccc(O)c3C(=O)C12` (stereo unspecified), the GI50 in [1] was 2.82 µM; in [2], 0.38 µM; in test [3] it was 2.91 µM; in [4] it was 0.62 µM; in test [10], 0.69 µM; in test [5], 11 µM. The GI50 in [6] is 7.04 µM; in test [7], 2.47 µM; in test [8] it was 0.817 µM; in [9], 3.56 µM. The TGI in test [1] was 9.06 µM; in [2] it was > 100 µM; in [3] it was 10.5 µM; in test [4], 2.71 µM; in test [10], 2.63 µM; in [5], 26.1 µM. Also, the TGI was 18.1 µM in [6], > 22.8 µM in test [7], 2.62 µM in test [8] and > 36.6 µM in test [9].

For `O=C(NN1CCCCC1)c1cc2cc(CCl)ccc2oc1=O`, the TGI in test [1] is 35.3 µM; in [2], 67.5 µM; in [3], 49.4 µM; in test [4], 39.3 µM; in test [10], 54.2 µM; in test [5], 33.7 µM. For the same compound, the TGI amounted to 54.8 µM in test [6], 31.6 µM in test [7], 33.3 µM in [8] and 85.8 µM in test [9].

With `CC(C)C(=O)CC(c1ccc(Br)cc1)N1N=C(C(C)C)CC1c1ccc(Br)cc1` (stereo unspecified), the TGI in [1], in [2], in [3], in test [4], in test [6] and in [7] was > 100 µM each time. The TGI in test [8] is > 100 µM.

As for `CC(C)(C)COS(=O)OCC(C)(C)C`, the TGI in test [1], in test [2], in test [3], in [4], in [10] and in [5] was > 100 µM each time. Further, the TGI in test [6], in [7], in test [8] and in test [9] was > 100 µM in each case.

Regarding `Fc1c(F)c(F)c(CSc2nc3ccccc3[nH]2)c(F)c1F`, the TGI in test [1], in [2], in test [3], in test [4], in test [10] and in [5] was > 100 µM each time. Besides, the TGI in test [6], in test [7], in [8] and in test [9] was > 100 µM in each case.

As for `COc1cc(S(=O)(=O)Nc2ccc(-c3csc(/N=C\c4cccc(Oc5ccccc5)c4)n3)cc2)ccc1Cl`, the TGI in test [1], in [2], in test [3], in test [4], in [10] and in test [5] was > 100 µM throughout. Also, the TGI was 61.9 µM in test [6], > 100 µM in [8] and 25.1 µM in [9].

`CC(CCCCNC(=O)OC(C)(C)C)NC(=O)NC(C)CCCCNC(=O)OC(C)(C)C` (stereo unspecified): the TGI in test [1], in test [2], in [3], in test [4], in [10] and in test [5] was > 100 µM throughout. Besides, the TGI in test [6], in test [7], in test [8] and in [9] was > 100 µM each time.

In the case of `C=C(CN(C)C)C(=O)c1ccccc1Cl`, the TGI in test [1] was 33.6 µM; in test [2], 44.3 µM; in test [3] it was > 75 µM; in test [4], 34.9 µM; in [5], 57.8 µM; in [6], 45.2 µM. In addition, the TGI in test [7] stood at 98.4 µM; in [8] it was 30.9 µM; in test [9] it was 34.2 µM.

As for `OC1CCSc2ccccc21` (stereo unspecified), the TGI in [1], in test [2], in test [3], in [4], in test [5] and in test [6] was > 100 µM throughout. Also, the TGI in test [7], in [8] and in [9] was > 100 µM each time.

On to `Cc1c2ccccc2cc2cccc[n+]12`, for which the TGI in [1] was 83.5 µM; in [2], > 100 µM; in test [3], 53 µM; in test [4], > 100 µM; in test [10], > 100 µM; in [5] it was 92.3 µM. Further, the TGI in test [6] and in test [9] was > 100 µM in each case.

Take `CCCCSCCC(N)P(=O)(O)O` (stereo unspecified): the TGI in test [1], in test [2], in test [4], in [10], in [5] and in test [6] was > 100 µM throughout. The TGI in test [7] and in test [8] was > 100 µM each time.

For the compound `CN(CCCNC(=O)c1nn(-c2ccccc2)c2c1Cc1ccccc1-2)CCCNC(=O)c1nn(-c2ccccc2)c2c1Cc1ccccc1-2`, the TGI in test [1] came to 3.29 µM; in test [2], 2.42 µM; in [4] it was 3.13 µM; in test [10] it was 3.37 µM; in test [5] it was 3.02 µM; in test [6] it was 3.39 µM. Besides, the TGI in [7] was found to be 2.82 µM; in [8], 2.46 µM; in [9], 3.26 µM.

In the case of `Nc1csc(-c2scc3c2OCCO3)c1N`, the TGI in test [1] turned out to be 33.4 µM; in test [3], 56.5 µM; in [4], 36.1 µM; in [10], 61.7 µM; in [5], 35.4 µM; in test [6], 40.1 µM. The TGI in test [7] was 29.3 µM; in [8] it was > 100 µM; in test [9], 45.1 µM.

In the case of `CS(=O)(=O)Nc1cccc(-c2ccc3ncnc(Nc4cncc(Cl)c4)c3c2)c1`, the GI50 in test [2] was 3.09 µM; in test [3], 2.92 µM; in test [10] it was 13.7 µM; in test [5], 1.75 µM; in test [6] it was 3.22 µM; in test [7] it was 1.64 µM. Also, the figures for the GI50 in test [8] and in [9] were 2.57 µM and 1.75 µM, respectively. Besides, the TGI in test [2] is > 100 µM; in test [3], > 100 µM; in test [10], > 100 µM; in [5], 3.74 µM; in test [6] it was > 100 µM; in [7], 4.18 µM. The TGI in test [8] was > 100 µM; in [9], 3.86 µM.

As to `COc1ccc2c3c([nH]c2c1)[C@H](C=C(C)C)N1C(=O)[C@@H]2CCCN2C(=O)[C@@H]1C3`, the TGI in test [1], in test [2], in test [3], in test [4], in test [10] and in test [6] was > 100 µM each time. The TGI in test [7], in test [8] and in [9] was > 100 µM each time.

In the case of `O=C1CNc2cc(N3CCCCC3)ccc2N1`, the TGI in test [1], in test [2], in test [3], in test [4], in test [10] and in [5] was > 100 µM each time. Besides, the TGI in test [6], in [7] and in test [9] was > 100 µM in each case.

`O=S(C(c1ccccc1)=P(c1ccccc1)(c1ccccc1)c1ccccc1)c1ccc(Cl)cc1` (stereo unspecified): the TGI was > 100 µM in [1]; > 100 µM in [2]; 57.2 µM in test [3]; > 100 µM in test [4]; > 100 µM in [10]; 27 µM in [5]. For the same compound, the TGI in [6], in test [7] and in test [8] was > 100 µM in each case.

On to `NC(N)=N/N=C/c1c(-c2cccs2)nc2n1CCS2`, for which the GI50 is 70.4 µM in test [1]; 17.2 µM in test [2]; 14.2 µM in test [3]; 15.5 µM in test [4]; 15.6 µM in test [5]; 46.5 µM in [6]. The results for the GI50 in test [7] and in test [9] were 16.6 µM and 13.5 µM, respectively. The TGI was > 100 µM in [1]; 34 µM in test [2]; 29.2 µM in test [3]; 32.7 µM in [4]; 29.1 µM in test [5]; > 100 µM in [6]. Further, the TGI is 30.1 µM in test [7] and 26.4 µM in test [9].

These data come from PubChem BioAssay (NCI).
